Residue numbers refer to the chain shown, from its start. Where a name gives a salt, the structure may show the parent alone. Read-outs that look alike come from different tables or passages of the source.
How the values were obtained:
[1] = target: σ1R; conditions: cited from earlier work; for Ki: inhibition of radioligand (e.g. [3H]SKF-10,047) binding to σ1R
[2] = target: T1, xlσ1R wild-type (Xenopus laevis, UniProt Q6DCU6); experiment: Microscale thermophoresis (MST) binding to xlσ1R wild-type
T1 construct: hemagglutinin signal peptide (N); made in house; host or cells: Pichia pastoris GS115
T1 sequence (Q6DCU6 1-221): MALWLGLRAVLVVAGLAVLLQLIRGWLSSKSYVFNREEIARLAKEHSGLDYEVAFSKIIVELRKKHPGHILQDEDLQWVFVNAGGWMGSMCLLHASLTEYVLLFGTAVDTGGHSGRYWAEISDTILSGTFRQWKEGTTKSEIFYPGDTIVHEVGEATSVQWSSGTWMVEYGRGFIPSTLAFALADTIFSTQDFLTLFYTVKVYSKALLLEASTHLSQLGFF

[3] = target: T2, xlσ1R E169A (Xenopus laevis, UniProt Q6DCU6, E169A); experiment: Microscale thermophoresis (MST) binding to xlσ1R E169A mutant
T2 construct: hemagglutinin signal peptide (N); made in house; host or cells: Pichia pastoris GS115
T2 sequence (Q6DCU6 1-221 E169A): T1 sequence (Q6DCU6 1-221) with E169A

[4] = target: the molecule itself; experiment: crystal structure; sitting-drop vapour diffusion at 20 °C; 0.32 M LiCl, 0.1 M sodium citrate pH 5.5, 12% PEG 4000, 10% glycerol, 15 mM sodium cholate; protein in OG/CHS; no ligand added, or with 1 mM progesterone or 1 mM DHEAS; space groups I432 (trimer by crystal symmetry) and C2 (two trimers in the asymmetric unit)

C[C@]12CC[C@H](O)CC1=CC[C@@H]1[C@@H]2CC[C@]2(C)C(=O)CC[C@@H]12 [DHEA, dehydroepiandrosterone]
Ki [1]: micromolar range or more

CC12CCC3C(CC=C4CC(OS(=O)(=O)O)CCC43C)C1CCC2=O (stereo not drawn) [DHEAS, dehydroepiandrosterone sulfate]
Kd ([2]; read-out: Kd (mean), MST, wild-type xlσ1R, N = 3, mean (± SD)): 18 ± 2.5 µM | Kd ([2]; read-out: Kd Mean, Source Data sheet Supplementary Table 3, wild-type, mean of 3): 18 µM | Kd ([2]; read-out: Kd Repeat 1, Source Data sheet Supplementary Table 3, wild-type, repeat 1): 17.2 µM | Kd ([2]; read-out: Kd Repeat 2, Source Data sheet Supplementary Table 3, wild-type, repeat 2): 15.9 µM | Kd ([2]; read-out: Kd Repeat 3, Source Data sheet Supplementary Table 3, wild-type, repeat 3): 20.8 µM | Kd ([3]; read-out: Kd (mean), MST, xlσ1R E169A, N = 3, mean (± SD)): 456 ± 17 µM | Kd ([3]; read-out: Kd Mean, Source Data sheet Supplementary Table 3, E169A, mean of 3): 456 µM | Kd ([3]; read-out: Kd Repeat 1, Source Data sheet Supplementary Table 3, E169A, repeat 1): 471 µM | Kd ([3]; read-out: Kd Repeat 2, Source Data sheet Supplementary Table 3, E169A, repeat 2): 438 µM | Kd ([3]; read-out: Kd Repeat 3, Source Data sheet Supplementary Table 3, E169A, repeat 3): 460 µM | Ki [1]: micromolar range or more

CCCCCCCCO[C@@H]1O[C@H](CO)[C@@H](O)[C@H](O)[C@H]1O [OG, octyl-β-D-glucopyranoside]
Kd ([2]; MST binding assay, xlσ1R, printed only in peer review file, OG data removed from final manuscript, read-out: Kd): 8300 ± 2700 µM

CC(=O)[C@H]1CC[C@H]2[C@@H]3CCC4=CC(=O)CC[C@]4(C)[C@H]3CC[C@]12C [progesterone]
Kd ([2]; MST, wild-type xlσ1R, N = 3, mean (± SD), read-out: Kd (mean)): 0.94 ± 0.22 µM | Kd ([2]; Source Data sheet Supplementary Table 3, wild-type, repeat 1, read-out: Kd Repeat 1): 0.71 µM | Kd ([2]; Source Data sheet Supplementary Table 3, wild-type, repeat 2, read-out: Kd Repeat 2): 0.96 µM | Kd ([2]; Source Data sheet Supplementary Table 3, wild-type, repeat 3, read-out: Kd Repeat 3): 1.14 µM | affinity for σ1R [1]: in μM range | Ki [1]: submicromolar range

pregnenolone sulfate
Ki [1]: micromolar range or more

B1: sigma-1 receptor from Xenopus laevis (xlσ1R), wild type, purification tag removed (receptor)
chain: T1 sequence (Q6DCU6 1-221)
notes: sigma-1 receptor, Xenopus laevis, NCBI NP_001087013.1, wild type; the simulation methods speak of residues 1-33 (transmembrane helix) and 34-219 of the crystal model; Cloned in a modified pPICZ plasmid after a hemagglutinin signal peptide, a decahistidine tag and a TEV protease site; the tag was removed by TEV protease before crystallisation; also called xlσ1R_(unknown-lig); xlσ1R_(prog-co); not …
stoichiometry N [4]: 3

— PMC11224282, “Insight into binding of endogenous neurosteroid ligands to the sigma-1 receptor” (Nature Communications, 2024)
